{"source": "PubChem BioAssay (NCI)", "test_in_all_cases": "inhibition of tumour cell growth, NCI panel, 48 h", "key": {"[1]": {"system": "SK-MEL-2 melanoma"}, "[2]": {"system": "U251 CNS"}, "[3]": {"system": "OVCAR-5 ovarian"}, "[4]": {"system": "SF-268 CNS"}, "[5]": {"system": "SR leukemia"}, "[6]": {"system": "NCI/ADR-RES ovarian"}, "[7]": {"system": "CAKI-1 renal"}, "[8]": {"system": "ACHN renal"}, "[9]": {"system": "786-0 renal"}, "[10]": {"system": "TK-10 renal"}, "[11]": {"system": "OVCAR-8 ovarian"}, "[12]": {"system": "MCF7 breast"}, "[13]": {"system": "NCI-H23 lung"}, "[14]": {"system": "HOP-92 NSCLC"}, "[15]": {"system": "M14 melanoma"}, "[16]": {"system": "MDA-MB-435"}, "[17]": {"system": "HCC-2998 colon"}, "[18]": {"system": "SNB-19 CNS"}, "[19]": {"system": "SF-295 CNS"}, "[20]": {"system": "UACC-62 melanoma"}, "[21]": {"system": "CCRF-CEM leukemia"}, "[22]": {"system": "RXF 393 renal"}, "[23]": {"system": "BT-549 breast"}, "[24]": {"system": "A498 renal"}, "[25]": {"system": "LOX IMVI melanoma"}, "[26]": {"system": "SK-MEL-28 melanoma"}, "[27]": {"system": "SF-539 CNS"}, "[28]": {"system": "DU-145 prostate"}, "[29]": {"system": "RPMI-8226 leukemia"}}, "note": "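Compound exposure: 48 hours, 5 concentrations, 96-well plates. The concentration for 50% growth inhibition is given as GI50. TGI marks complete inhibition of growth.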", "data": [{"smiles": "Nc1c(C(=O)c2cccc(OC[C@@H](O)CO)c2)cnn1-c1ccc(F)cc1", "values": [{"measurement": "GI50", "setting": "[1]", "value": "> 25", "unit": "µM"}, {"measurement": "TGI", "setting": "[1]", "value": "> 25", "unit": "µM"}, {"measurement": "GI50", "setting": "[2]", "value": "> 25", "unit": "µM"}, {"measurement": "TGI", "setting": "[2]", "value": "> 25", "unit": "µM"}, {"measurement": "GI50", "setting": "[3]", "value": "> 25", "unit": "µM"}, {"measurement": "TGI", "setting": "[3]", "value": "> 25", "unit": "µM"}, {"measurement": "GI50", "setting": "[4]", "value": "> 25", "unit": "µM"}, {"measurement": "TGI", "setting": "[4]", "value": "> 25", "unit": "µM"}, {"measurement": "GI50", "setting": "[5]", "value": "> 25", "unit": "µM"}, {"measurement": "TGI", "setting": "[5]", "value": "> 25", "unit": "µM"}, {"measurement": "GI50", "setting": "[6]", "value": "> 25", "unit": "µM"}, {"measurement": "TGI", "setting": "[6]", "value": "> 25", "unit": "µM"}, {"measurement": "GI50", "setting": "[7]", "value": "> 25", "unit": "µM"}, {"measurement": "TGI", "setting": "[7]", "value": "> 25", "unit": "µM"}, {"measurement": "GI50", "setting": "[8]", "value": "> 25", "unit": "µM"}, {"measurement": "TGI", "setting": "[8]", "value": "> 25", "unit": "µM"}, {"measurement": "GI50", "setting": "[9]", "value": "> 25", "unit": "µM"}, {"measurement": "TGI", "setting": "[9]", "value": "> 25", "unit": "µM"}, {"measurement": "GI50", "setting": "[10]", "value": "> 25", "unit": "µM"}, {"measurement": "TGI", "setting": "[10]", "value": "> 25", "unit": "µM"}, {"measurement": "GI50", "setting": "[11]", "value": "> 25", "unit": "µM"}, {"measurement": "TGI", "setting": "[11]", "value": "> 25", "unit": "µM"}, {"measurement": "GI50", "setting": "[12]", "value": "> 25", "unit": "µM"}, {"measurement": "TGI", "setting": "[12]", "value": "> 25", "unit": "µM"}, {"measurement": "GI50", "setting": "[13]", "value": "> 25", "unit": "µM"}, {"measurement": "TGI", "setting": "[13]", "value": "> 25", "unit": "µM"}, {"measurement": "GI50", "setting": "[14]", "value": "> 25", "unit": "µM"}, {"measurement": "TGI", "setting": "[14]", "value": "> 25", "unit": "µM"}, {"measurement": "GI50", "setting": "[15]", "value": "> 25", "unit": "µM"}, {"measurement": "TGI", "setting": "[15]", "value": "> 25", "unit": "µM"}, {"measurement": "GI50", "setting": "[16]", "value": "> 25", "unit": "µM"}, {"measurement": "TGI", "setting": "[16]", "value": "> 25", "unit": "µM"}, {"measurement": "GI50", "setting": "[17]", "value": "> 25", "unit": "µM"}, {"measurement": "TGI", "setting": "[17]", "value": "> 25", "unit": "µM"}, {"measurement": "GI50", "setting": "[18]", "value": "> 25", "unit": "µM"}, {"measurement": "TGI", "setting": "[18]", "value": "> 25", "unit": "µM"}, {"measurement": "GI50", "setting": "[19]", "value": "> 25", "unit": "µM"}, {"measurement": "TGI", "setting": "[19]", "value": "> 25", "unit": "µM"}, {"measurement": "GI50", "setting": "[20]", "value": "> 25", "unit": "µM"}, {"measurement": "TGI", "setting": "[20]", "value": "> 25", "unit": "µM"}, {"measurement": "GI50", "setting": "[21]", "value": "> 25", "unit": "µM"}, {"measurement": "TGI", "setting": "[21]", "value": "> 25", "unit": "µM"}, {"measurement": "GI50", "setting": "[22]", "value": "> 25", "unit": "µM"}, {"measurement": "TGI", "setting": "[22]", "value": "> 25", "unit": "µM"}, {"measurement": "GI50", "setting": "[23]", "value": "> 25", "unit": "µM"}, {"measurement": "TGI", "setting": "[23]", "value": "> 25", "unit": "µM"}, {"measurement": "GI50", "setting": "[24]", "value": "> 25", "unit": "µM"}, {"measurement": "TGI", "setting": "[24]", "value": "> 25", "unit": "µM"}, {"measurement": "GI50", "setting": "[25]", "value": "> 25", "unit": "µM"}, {"measurement": "TGI", "setting": "[25]", "value": "> 25", "unit": "µM"}, {"measurement": "GI50", "setting": "[26]", "value": "> 25", "unit": "µM"}, {"measurement": "TGI", "setting": "[26]", "value": "> 25", "unit": "µM"}, {"measurement": "GI50", "setting": "[27]", "value": "> 25", "unit": "µM"}, {"measurement": "TGI", "setting": "[27]", "value": "> 25", "unit": "µM"}, {"measurement": "GI50", "setting": "[28]", "value": "> 25", "unit": "µM"}, {"measurement": "TGI", "setting": "[28]", "value": "> 25", "unit": "µM"}, {"measurement": "GI50", "setting": "[29]", "value": "> 25", "unit": "µM"}]}]}
